Assay results published in the NIST ThermoML archive (doi:10.1021/acs.jced.8b01135).

Assay: xn = mol fraction of the nth substance listed
Settings: 102 kPa, Liquid; for speed of sound: Frequency=3 MHz, Single path-length method; for mass density: Vibrating tube method; for viscosity: Concentric cylinders viscometry

CCCCCCCCC1CCCCC1 [octylcyclohexane] + CCCCCCCCCCCC
Settings	mass density [kg/m3]	speed of sound [m/s]	viscosity [mPa·s]
288.15 K, x1 = 0.1	759.33	1326.2	–
288.15 K, x1 = 0.1998	766.24	1335.1	–
288.15 K, x1 = 0.3002	772.95	1344.1	–
288.15 K, x1 = 0.3998	779.63	1353.1	–
288.15 K, x1 = 0.4948	785.9	1361.6	–
288.15 K, x1 = 0.5997	792.69	1370.8	–
288.15 K, x1 = 0.6996	798.98	1379.4	–
288.15 K, x1 = 0.7999	805.34	1388.2	–
288.15 K, x1 = 0.9	811.48	1396.9	–
288.15 K, x1 = 1	817.58	1405.5	–
293.15 K, x1 = 0.1	755.72	1306.9	1.61
293.15 K, x1 = 0.1998	762.65	1315.8	1.74
293.15 K, x1 = 0.3002	769.38	1324.8	1.91
293.15 K, x1 = 0.3998	776.08	1333.9	2.05
293.15 K, x1 = 0.4948	782.36	1342.3	2.23
293.15 K, x1 = 0.5997	789.17	1351.6	2.44
293.15 K, x1 = 0.6996	795.48	1360.3	2.66
293.15 K, x1 = 0.7999	801.86	1369.1	2.91
293.15 K, x1 = 0.9	808.01	1377.8	3.2
293.15 K, x1 = 1	814.13	1386.4	3.52
298.15 K, x1 = 0.1	752.11	1287.6	–
298.15 K, x1 = 0.1998	759.06	1296.5	–
298.15 K, x1 = 0.3002	765.81	1305.5	–
298.15 K, x1 = 0.3998	772.53	1314.8	–
298.15 K, x1 = 0.4948	778.83	1323.4	–
298.15 K, x1 = 0.5997	785.65	1332.6	–
298.15 K, x1 = 0.6996	791.98	1341.2	–
298.15 K, x1 = 0.7999	798.37	1350.2	–
298.15 K, x1 = 0.9	804.53	1358.7	–
298.15 K, x1 = 1	810.67	1367.4	–
303.15 K, x1 = 0.1	748.5	1268.4	1.36
303.15 K, x1 = 0.1998	755.45	1277.3	1.47
303.15 K, x1 = 0.3002	762.24	1286.4	1.6
303.15 K, x1 = 0.3998	768.97	1295.9	1.69
303.15 K, x1 = 0.4948	775.29	1304.4	1.82
303.15 K, x1 = 0.5997	782.13	1313.8	1.98
303.15 K, x1 = 0.6996	788.47	1322.2	2.15
303.15 K, x1 = 0.7999	794.88	1331.4	2.34
303.15 K, x1 = 0.9	801.06	1339.9	2.55
303.15 K, x1 = 1	807.2	1348.6	2.79
313.15 K, x1 = 0.1	741.26	1230.7	1.16
313.15 K, x1 = 0.1998	748.26	1239.6	1.24
313.15 K, x1 = 0.3002	755.08	1248.9	1.33
313.15 K, x1 = 0.3998	761.84	1258.6	1.43
313.15 K, x1 = 0.4948	768.19	1267.1	1.52
313.15 K, x1 = 0.5997	775.07	1276.7	1.64
313.15 K, x1 = 0.6996	781.45	1285.1	1.77
313.15 K, x1 = 0.7999	787.89	1294.4	1.92
313.15 K, x1 = 0.9	794.1	1302.8	2.08
313.15 K, x1 = 1	800.28	1311.6	2.26
323.15 K, x1 = 0.1	734	1193.7	1
323.15 K, x1 = 0.1998	741.03	1202.7	1.07
323.15 K, x1 = 0.3002	747.89	1212.2	1.14
323.15 K, x1 = 0.3998	754.69	1221.9	1.23
323.15 K, x1 = 0.4948	761.08	1230.5	1.31
323.15 K, x1 = 0.5997	768	1240.1	1.38
323.15 K, x1 = 0.6996	774.42	1248.7	1.48
323.15 K, x1 = 0.7999	780.88	1258.1	1.6
323.15 K, x1 = 0.9	787.14	1266.6	1.73
323.15 K, x1 = 1	793.35	1275.5	1.87
333.15 K, x1 = 0.1	726.7	1157.6	0.865
333.15 K, x1 = 0.1998	733.78	1166.9	0.923
333.15 K, x1 = 0.3002	740.68	1176.4	0.984
333.15 K, x1 = 0.3998	747.52	1186	1.06
333.15 K, x1 = 0.4948	753.94	1194.8	1.12
333.15 K, x1 = 0.5997	760.9	1204.5	1.18
333.15 K, x1 = 0.6996	767.37	1213.3	1.26
333.15 K, x1 = 0.7999	773.86	1222.7	1.36
333.15 K, x1 = 0.9	780.16	1231.5	1.46
333.15 K, x1 = 1	786.41	1240.3	1.57
